Assay results published in US6558900B2, “Regulation of apoptosis and in vitro model for studies thereof” (Emory University, priority 1996, dated 2003).

Key:
[1] = tested on: CPP32; experiment: Reconstitution of dATP-dependent activation of CPP32 with S-cytosol (sucrose-prepared HeLa cytosol); type: biochemical, human; details: S-cytosol 50 μg supplemented with 0.2 μg, 1 mM dATP
Protocol: On day 0, Hela cells were set up at 5×10^5 cells per 100 mm dish in medium A as described hereinbelow. On day 2, cells were harvested, collected by centrifugation (1000 g, 10 min, 4° C.). After washed once with ice-cold PBS, the cell pellet was suspended in 5 volumes of ice-cold buffer A containing 250 mM sucrose. The cells were disrupted by douncing 3 times in a 5 ml Wheaton douncer with a pestle polished with sand paper. After microcentrifugation for 5 min at 4° C., the supernatants were further centrifuged at 10^5×g for 30 min in a table top ultracentrifuge (Beckman Instruments, Fullerton, Calif.). The resulting supernatants were designated as S-cytosol. Aliquots of S-cytosol (50 μg) alone (lanes 1 and 2), or supplemented with 0.2 μg Apaf-2 purified through the Mono S column (lanes 3 and 4), were incubated with aliquots of 3 μl in vitro translated, ^35S-labeled CPP32 in the absence (lanes 1, 3) or presence (lanes 2, 4) of 1 mM dATP at 30° C. for 1 hr in a final reaction volume of 20 μl of buffer A. Samples were subjected to SDS-PAGE and transferred to a nitrocellulose filter which were then exposed to film for 16 hr at room temperature.
Human cytochrome c is encoded by a single copy nuclear gene [Evans and Scarpulla (1988) Proc. Natl. Acad. Sci. USA 85, 9625-9629] which is translated on cytoplasmic ribosomes as apocytochrome c. […]

[2] = tested on: CPP32; experiment: Assay for dATP-dependent activation of CPP32 protease (cleavage of in vitro translated 35S-labeled CPP32 in HeLa S-100); type: biochemical, hamster; details: 1 mM nucleotide, 30° C., 1 hr
Protocol: The samples were subjected to SDS-PAGE and transferred to a nitrocellulose filter. The filter was exposed to film for 16 hours at room temperature. In FIG. 2B, a 50 μl aliquot of HeLa S-100 (250 μg) was incubated with each aliquot of 6 μl hamster liver nuclei at 37° C. for 2 hr in the presence of 1 mM indicated nucleotide. The DNA was isolated, analyzed by 2% agarose gel electrophoresis and visualized by ethidium bromide staining.
To test the nucleotide specificity for activation of CPP32 and DNA fragmentation, HeLa cell S-100 was incubated with in vitro translated, ^35S-labeled CPP32 in the presence of 1 mM of various nucleotides (FIG. 2A).
A PCR fragment encoding amino acids 29-277 of hamster CPP32 [Wang et al. (1996) supra] was cloned into NdeI and BamHI sites of pET 15b vector (Novagen, Madison, Wis.). The resulting fusion protein of six histidines with hamster CPP32 (amino acids 29-277) was translated in a TNT T7 transcription/translation kit (Promega, Madison, Wis.) in the presence of ^35S-methionine according to the manufacturer's instructions. The translated protein was passed through a 1 ml nickel affirmity column (Qiagen, Chatsworth, Calif.) equilibrated with buffer A. After washing the column with 10 ml of buffer A, the translated CPP32 was eluted with buffer A containing 250 mM imidazole. Human SREBP-2 was translated in a TNT SP6 transcription/translation kit as described [Wang et al. (1995) [Hua et al. (1993) Proc. Natl. Acad. Sci. USA 90, 11603-11607]. Full length human PARP cDNA [Chemey et al. (1987) Proc. Natl. Acad. Sci. USA 84, 8370-8374] was cloned into SmaI and EcoRI sites of pBK-CMV vector (Stratagene, La Jolla, Calif.) and translated in a TNT T7 transcription/translation kit [Promega, Madison, Wis.]. The translated SREBP-2 and PARP (200 μl each) were purified by passing each translation mixture through a 10-ml Sephadex G-25 gel-filtration column equilibrated with buffer A. The translated proteins contained within the exclusion volume of the column were collected.
CPP32 was translated and purified as described above. Aliquot of 3 μl of the in vitro translated CPP32 was incubated with the indicated protein fraction, nucleotides, and 1 mM additional MgCl2 at 30° C. for 1 hour in a final volume of 20 μl of buffer A. At the end of the incubation, 7 μl of 4×SDS sample buffer was added to each reaction. After boiling for 3 min, each sample was subjected to a 15% SDS-polyacrylamide gel electrophoresis (SDS-PAGE). The gel was transferred to a nitrocellulose filter which was subsequently exposed to a Kodak X-OMAT AR X-ray film (Eastman Kodak, Rochester, N.Y.) for 16 hr at room temperature.

Molecule | dATP-dependent activation of CPP32 in S-cytosol [1] | cleavage of 35S-labeled CPP32 (nucleotide specificity) [2]
Apaf-2: 15 kDa factor bound to phosphocellulose column, purified from HeLa S-100, identified as human cytochrome c | incapable of initiating the dATP-dependent activation of CPP32 (lanes 1 and 2) unless purified cytochrome c was added | –
Nc1ncnc2c1ncn2[C@H]1C[C@H](O)[C@@H](COP(=O)(O)OP(=O)(O)OP(=O)(O)O)O1 [dATP, deoxyadenosine-5-triphosphate] | – | Cleavage occurred
